Measurements: patent publication EP0844825B1, “INSECTICIDAL N-(SUBSTITUTED ARYLMETHYL)-4- BIS(SUBSTITUTED PHENYL OR PYRIDYL)METHYL]PIPERIDINES” (FMC CORPORATION, priority 1995, dated 1996)

How the values were obtained:
[1] = system: beet armyworm (Spodoptera exigua [Hubner]); assay: Foliar spray test on chick pea plants, beet armyworm, 96 hour exposure; format: in vivo; conditions: rate of application 100 ppm, dead plus moribund insects, * = average of more than one test
Protocol: (§1) Candidate insecticides with high pl50 values from the diet test were tested for insecticidal activity in foliar evaluations against tobacco budworm, beet armyworm (Spodoptera exigua [Hubner]), and cabbage looper (Trichoplusia ni [Hubner])
(§2) In these tests against tobacco budworm and beet armyworm, nine-day-old chick pea plants (Cicer arietinum) were sprayed at 20 psi to runoff on both upper and lower leaf surfaces with solutions of test chemical to provide application rates as high as 1000 ppm of test chemical. The solvent used to prepare the solutions of test chemical was 10% acetone or methanol (v/v) and 0.1% of the surfactant octylphenoxypolyethoxyethanol in distilled water. Four replicates, each containing one chick pea plant, for each rate of application of test chemical were sprayed. The treated plants were transferred to a hood, where they were kept until the spray had dried.
(§3) The four chick pea plants for each replicate treated with test chemical as described above were removed from their pots by cutting the stems just above the soil line. The excised leaves and stems from the four plants in each replicate were placed in individual 8-ounce paper cups, each containing a moistened filter paper. Five second-instar (6 days old) tobacco budworms or beet armyworms (7-8 days old) were counted into each cup, taking care not to cause injury. An opaque plastic lid was placed on each cup, which was then held in a growth chamber for a 96 hour exposure period at 25°C and 50% relative humidity. At the end of the 96 hour exposure period the cups were opened, and the numbers of dead, moribund, and live insects were counted. Using the insect counts, the efficacy of the test chemical was expressed in percent control. Percent control is derived from the total number of dead insects (TD) plus the total number of moribund insects (TM) as compared to the total number of insects (TI) in the test: % Control =(TD+TM)/(TI)x 100 [formula]
(§4) The condition of the test plants was also observed for phytotoxicity and for reduction of feeding damage as compared to an untreated control.

[2] = system: tobacco budworm (Heliothis veriscens [Fabricius]); assay: Foliar spray test on chick pea plants, tobacco budworm, 96 hour exposure; format: in vivo, Heliothis virescens; conditions: rate of application 100 ppm, dead plus moribund insects, * = average of more than one test
Protocol: as §1, §2, §3, §4

[3] = system: tobacco budworm (Heliothis virescens [Fabricius]); assay: Diet test: test chemical incorporated into artificial diet of tobacco budworm larvae, 5-day exposure; format: in vivo; conditions: for IC50 / LC50 / mortality at 100 µM / pest or weed control at 100 µM: Heliothis virescens, 120 h; for IC50: read-out: pl50 (converted); for LC50: negative log of the concentration that provides 50% mortality, read-out: pLC50 (converted); for mortality at 100 µM / pest or weed control at 100 µM: feed or water; for mortality at 100 µM: read-out: Percent Mortality; for pest or weed control at 100 µM / Percent Growth Inhibition: rate of application 4 (negative log of molar concentration in the diet), second instar larvae, 25°C; for pest or weed control at 100 µM: read-out: Percent Growth Inhibition
Protocol: Candidate insecticides were incorporated into an artificial diet for evaluation of insecticidal activity against the tobacco budworm (Heliothis virescens [Fabricius]) in the following manner. Stock solutions of test chemical in dimethyl sulfoxide, ranging from […], were prepared for each rate of application. One hundred microliters of each of the stock solutions was manually stirred into 50 mL of a molten (65-70°C) wheat germ-based artificial diet. The 50 mL of molten diet containing the test chemical was poured evenly into twenty wells in the outer two rows on each side of a twenty-five well, five row plastic tray. (Each well in the tray was about 1 cm in depth, with an opening of 3 cm by 4 cm at the lip.) Molten diet containing only dimethyl sulfoxide at the levels used in the test chemical-treated diet was poured into the five wells in the third (center) row of the tray. Each tray therefore contained one test chemical at a single rate of application, together with an untreated control. The rates of application, expressed as the negative log of the molar concentration, and the corresponding concentrations of the stock solution prepared for each rate are shown below:
Single second instar tobacco budworm larvae, selected at a stage of growth at which they uniformly weigh about 5 mg each, were placed in each well. Upon completion of infestation, a sheet of clear plastic was heat-sealed over the top of the tray by use of a common household flat.iron. The trays were held at 25°C at 60% relative humidity for five days in a growth chamber. Lighting was set at 14 hours of light and 10 hours of darkness. After the 5-day exposure period, mortality counts were taken, and the surviving insects were weighed. From the weights of the surviving insects that fed on the treated diet as compared to those insects that fed on the untreated diet, the percent growth inhibition caused by each test chemical was determined. […] Also, where possible, the negative log of the concentration of the test chemical that provided 50% mortality (pLC50) was determined.

[4] = system: cabbage looper (Trichoplusia ni [Hubner]); assay: Foliar spray test on pinto bean plants, cabbage looper, 96 hour exposure; format: in vivo; conditions: rate of application 100 ppm, dead plus moribund insects, * = average of more than one test
Protocol: as §1, §2, §3, §4
Foliar tests with cabbage looper were conducted in the same manner as described above, the difference being that pinto bean plants (Phaseolus vulgaris) were used in place of chick pea plants.

[5] = negative log of the concentration that provides 50% growth inhibition, by linear regression, 5 days, * = average of more than one test
[6] = 5 days, * = average of more than one test

Row | Compound | mortality at 100 µM [3] [%] | further results
1 | COc1ccc(CN2CCC(C(O)(c3ccc(OC(F)(F)F)cc3)c3ccc(OC(F)(F)F)cc3)CC2)cc1 [Compound 1, N-(4-methoxyphenylmethyl)-4-[bis(4-trifluoromethoxyphenyl)hydroxymethyl]piperidine] | 100 | Percent Control BAW [1]: 55%; Percent Control TBW [2]: 80%; IC50 [3, 5]: 794 nM; LC50 [3, 6]: 25100 nM; pest or weed control at 100 µM [3, 6]: 100%; Percent Control CL [4]: 100%
2 | Cc1cccnc1Oc1ccc(C[N+]2([O-])CCC(C(O)(c3ccc(C(F)(F)F)cc3)c3ccc(C(F)(F)F)cc3)CC2)cc1 (centres unmarked) [Compound 58] | 100 | 
3 | Cc1ccc[n+]([O-])c1Oc1ccc(CN2CCC(C(O)(c3ccc(C(F)(F)F)cc3)c3ccc(C(F)(F)F)cc3)CC2)cc1 [Compound 59] | 100 | 
4 | OC(c1ccc(C(F)(F)F)cc1)(c1ccc(C(F)(F)F)cc1)C1CCN(Cc2ccc(Oc3ncccc3C(F)(F)F)cc2)CC1 [Compound 60] | 100 | 
5 | [O-][N+]1(Cc2ccc(Oc3ncccc3C(F)(F)F)cc2)CCC(C(O)(c2ccc(C(F)(F)F)cc2)c2ccc(C(F)(F)F)cc2)CC1 (centres unmarked) [Compound 61] | 100 | 
6 | Cc1ccnc(Oc2ccc(CN3CCC(C(O)(c4ccc(C(F)(F)F)cc4)c4ccc(C(F)(F)F)cc4)CC3)cc2)c1 [Compound 62] | 100 | IC50 [3, 5]: 631 nM; LC50 [3, 6]: 6310 nM; Percent Growth Inhibition [3, 6]: 100%
7 | Cc1ccnc(Oc2ccc(C[N+]3([O-])CCC(C(O)(c4ccc(C(F)(F)F)cc4)c4ccc(C(F)(F)F)cc4)CC3)cc2)c1 (centres unmarked) [Compound 63] | 100 | 
8 | OC(c1ccc(C(F)(F)F)cc1)(c1ccc(C(F)(F)F)cc1)C1CCN(Cc2ccc(Oc3cc(C(F)(F)F)ccn3)cc2)CC1 [Compound 64] | 100 | 
9 | [O-][n+]1ccc(C(F)(F)F)cc1Oc1ccc(CN2CCC(C(O)(c3ccc(C(F)(F)F)cc3)c3ccc(C(F)(F)F)cc3)CC2)cc1 [Compound 65] | 25 | 
10 | OC(c1ccc(C(F)(F)F)cc1)(c1ccc(C(F)(F)F)cc1)C1CCN(Cc2ccc(Oc3ccc(Cl)cn3)cc2)CC1 [Compound 66] | 100 | 
11 | [O-][N+]1(Cc2ccc(Oc3ccc(Cl)cn3)cc2)CCC(C(O)(c2ccc(C(F)(F)F)cc2)c2ccc(C(F)(F)F)cc2)CC1 (centres unmarked) [Compound 67] | 70 | 
12 | Cc1ccc(Oc2ccc(CN3CCC(C(O)(c4ccc(C(F)(F)F)cc4)c4ccc(C(F)(F)F)cc4)CC3)cc2)nc1 [Compound 68] | 90 | 
13 | Cc1ccc(Oc2ccc(C[N+]3([O-])CCC(C(O)(c4ccc(C(F)(F)F)cc4)c4ccc(C(F)(F)F)cc4)CC3)cc2)nc1 (centres unmarked) [Compound 69] | 100 | 
14 | OC(c1ccc(C(F)(F)F)cc1)(c1ccc(C(F)(F)F)cc1)C1CCN(Cc2ccc(Oc3ccc(C(F)(F)F)cn3)cc2)CC1 [Compound 70] | 100 | 
15 | [O-][N+]1(Cc2ccc(Oc3ccc(C(F)(F)F)cn3)cc2)CCC(C(O)(c2ccc(C(F)(F)F)cc2)c2ccc(C(F)(F)F)cc2)CC1 (centres unmarked) [Compound 71] | 100 | 
16 | N#Cc1ccc(Oc2ccc(CN3CCC(C(O)(c4ccc(C(F)(F)F)cc4)c4ccc(C(F)(F)F)cc4)CC3)cc2)nc1 [Compound 72] | 100 | 
17 | N#Cc1ccc(Oc2ccc(C[N+]3([O-])CCC(C(O)(c4ccc(C(F)(F)F)cc4)c4ccc(C(F)(F)F)cc4)CC3)cc2)nc1 (centres unmarked) [Compound 73] | 100 | 

Row | Compound | mortality at 100 µM [3] [%] | further results
18 | Cc1cccc(Oc2ccc(CN3CCC(C(O)(c4ccc(C(F)(F)F)cc4)c4ccc(C(F)(F)F)cc4)CC3)cc2)n1 [Compound 75] | 100 | 
19 | Cc1cccc(Oc2ccc(C[N+]3([O-])CCC(C(O)(c4ccc(C(F)(F)F)cc4)c4ccc(C(F)(F)F)cc4)CC3)cc2)n1 (centres unmarked) [Compound 76] | 100 | IC50 [3, 5]: 631 nM; LC50 [3, 6]: 6310 nM; Percent Growth Inhibition [3, 6]: 100%
20 | Cc1cccc(Oc2ccc(C[N+]3([O-])CCC(C(O)(c4ccc(C(F)(F)F)cc4)c4ccc(C(F)(F)F)cc4)CC3)cc2)[n+]1[O-] (centres unmarked) [Compound 77] | 60 | 
21 | OC(c1ccc(C(F)(F)F)cc1)(c1ccc(C(F)(F)F)cc1)C1CCN(Cc2ccc(OCc3ccccn3)cc2)CC1 [Compound 78] | 100 | 
22 | [O-][N+]1(Cc2ccc(OCc3ccccn3)cc2)CCC(C(O)(c2ccc(C(F)(F)F)cc2)c2ccc(C(F)(F)F)cc2)CC1 (centres unmarked) [Compound 79] | 100 | 
23 | [O-][N+]1(Cc2ccc(OCc3cccnc3)cc2)CCC(C(O)(c2ccc(C(F)(F)F)cc2)c2ccc(C(F)(F)F)cc2)CC1 (centres unmarked) [Compound 82] | 25 | 
24 | CC(Oc1ccc(CN2CCC(C(O)(c3ccc(C(F)(F)F)cc3)c3ccc(C(F)(F)F)cc3)CC2)cc1)c1ccccn1 (centres unmarked) [Compound 83] | 100 | IC50 [3, 5]: 1000 nM; LC50 [3, 6]: 31600 nM; Percent Growth Inhibition [3, 6]: 100%
25 | CC(Oc1ccc(C[N+]2([O-])CCC(C(O)(c3ccc(C(F)(F)F)cc3)c3ccc(C(F)(F)F)cc3)CC2)cc1)c1ccccn1 (centres unmarked) [Compound 84] | 100 | 
26 | CC(C)(Oc1ccc(CN2CCC(C(O)(c3ccc(C(F)(F)F)cc3)c3ccc(C(F)(F)F)cc3)CC2)cc1)c1ccccn1 [Compound 86] | 30 | 
27 | OC(c1ccc(C(F)(F)F)cc1)(c1ccc(C(F)(F)F)cc1)C1CCN(Cc2ccc(Oc3ncccn3)cc2)CC1 [Compound 95] | 100 | 
28 | [O-][N+]1(Cc2ccc(Oc3ncccn3)cc2)CCC(C(O)(c2ccc(C(F)(F)F)cc2)c2ccc(C(F)(F)F)cc2)CC1 (centres unmarked) [Compound 96] | 100 | 
29 | OC(c1ccc(C(F)(F)F)cc1)(c1ccc(C(F)(F)F)cc1)C1CCN(Cc2ccc(-c3nnn(CCF)n3)cc2)CC1 [Compound 98] | 100 | 
30 | [O-][N+]1(Cc2ccc(-c3nnn(CCF)n3)cc2)CCC(C(O)(c2ccc(C(F)(F)F)cc2)c2ccc(C(F)(F)F)cc2)CC1 (centres unmarked) [Compound 99] | 100 | 
31 | OC(c1ccc(C(F)(F)F)cc1)(c1ccc(C(F)(F)F)cc1)C1CCN(Cc2ccc(-c3ncccn3)cc2)CC1 [Compound 100] | 100 | 
32 | [O-][N+]1(Cc2ccc(-c3ncccn3)cc2)CCC(C(O)(c2ccc(C(F)(F)F)cc2)c2ccc(C(F)(F)F)cc2)CC1 (centres unmarked) [Compound 101] | 100 | 
33 | OC(c1ccc(OC(F)(F)F)cc1)(c1ccccc1OC(F)(F)F)C1CCN(Cc2ccc(C3OCCO3)cc2)CC1 (centres unmarked) [Compound 103, N-[4-(1,3-dioxolan-2-yl)phenylmethyl]-4-[(4-trifluoromethoxyphenyl)(2-trifluoromethoxyphenyl)hydroxymethyl]piperidine] | 100 | IC50 [3, 5]: ≤ 316 nM; LC50 [3, 6]: 12600 nM; pest or weed control at 100 µM [3, 6]: 100%
34 | CCn1nnc(-c2ccc(CN3CCC(C(O)(c4ccc(C(F)(F)F)cn4)c4ccc(C(F)(F)F)cn4)CC3)cc2)n1 [Compound 104] | 100 | IC50 [3, 5]: ≤ 316 nM; LC50 [3, 6]: 398 nM; pl50 [3, 5]: 6.8; Percent Growth Inhibition [3, 6]: 100%
